Results: patent US20240217969A1, “SUBSTITUTED PYRROLE CARBOXAMIDES, PROCESS FOR THEIR PREPARATION AND THEIR USE AS KINASE INHIBITORS” (priority 2021, published 2024)

How the values were obtained:
Cdc7 = Cdc7 (Homo sapiens, UniProt O00311); test: Cdc7 biochemical assay, ADPGlo assay format
Description: The biochemical activity of compounds was determined by incubation with specific enzymes and substrate, followed by quantification of the ADP product. Compounds were 4-fold serially diluted from 10 to 0.0006 uM; in the case of the pre-incubation step, the enzyme is added to the inhibitor solution and the mixture is left to incubate for 30 minutes at room temperature (r.t.). The reaction started with the addition of the substrate and the ATP, when the enzyme was already present in the preincubation step, or substrate, ATP and enzyme when the preincubation step was not present. The concentrations of ATP, substrate and reaction buffer are described above. The assays were run in a robotized format on 384-well plates. […] At the end of the incubation time, an equal volume of ADPGlo Reagent 1 (Promega) was added to stop the reaction and to remove all unreacted ATP. After 60 minutes, an equal volume of ADPGlo Reagent 2 (Promega) was added to convert ADP in ATP and then ATP in light by luciferase reaction.
y=bottom+(top−bottom)/(1+10^((log IC50−x)*slope))
where x is the logarithm of the inhibitor concentration, y is the response; y starts at bottom and goes to top with a sigmoid shape.

[1] = molecular target: T1, aldehyde oxidases (human liver cytosol) (Homo sapiens, UniProt Q06278); type: in vitro ADME; conditions: human liver cytosol 1 mg/mL, 1 μM compound; for HLC % remaining (1 h incub.): 60 min incubation; for HLC % remaining (1 h incub.) / HLC T½ min: pH 7.4, 37° C.; for IntCl (Intrinsic Clearance): half-life approach
T1 construct: added to human liver cytosol (1 mg/mL protein content); from tissue; host or cells: human liver cytosol
T1 sequence (Q06278 whole entry): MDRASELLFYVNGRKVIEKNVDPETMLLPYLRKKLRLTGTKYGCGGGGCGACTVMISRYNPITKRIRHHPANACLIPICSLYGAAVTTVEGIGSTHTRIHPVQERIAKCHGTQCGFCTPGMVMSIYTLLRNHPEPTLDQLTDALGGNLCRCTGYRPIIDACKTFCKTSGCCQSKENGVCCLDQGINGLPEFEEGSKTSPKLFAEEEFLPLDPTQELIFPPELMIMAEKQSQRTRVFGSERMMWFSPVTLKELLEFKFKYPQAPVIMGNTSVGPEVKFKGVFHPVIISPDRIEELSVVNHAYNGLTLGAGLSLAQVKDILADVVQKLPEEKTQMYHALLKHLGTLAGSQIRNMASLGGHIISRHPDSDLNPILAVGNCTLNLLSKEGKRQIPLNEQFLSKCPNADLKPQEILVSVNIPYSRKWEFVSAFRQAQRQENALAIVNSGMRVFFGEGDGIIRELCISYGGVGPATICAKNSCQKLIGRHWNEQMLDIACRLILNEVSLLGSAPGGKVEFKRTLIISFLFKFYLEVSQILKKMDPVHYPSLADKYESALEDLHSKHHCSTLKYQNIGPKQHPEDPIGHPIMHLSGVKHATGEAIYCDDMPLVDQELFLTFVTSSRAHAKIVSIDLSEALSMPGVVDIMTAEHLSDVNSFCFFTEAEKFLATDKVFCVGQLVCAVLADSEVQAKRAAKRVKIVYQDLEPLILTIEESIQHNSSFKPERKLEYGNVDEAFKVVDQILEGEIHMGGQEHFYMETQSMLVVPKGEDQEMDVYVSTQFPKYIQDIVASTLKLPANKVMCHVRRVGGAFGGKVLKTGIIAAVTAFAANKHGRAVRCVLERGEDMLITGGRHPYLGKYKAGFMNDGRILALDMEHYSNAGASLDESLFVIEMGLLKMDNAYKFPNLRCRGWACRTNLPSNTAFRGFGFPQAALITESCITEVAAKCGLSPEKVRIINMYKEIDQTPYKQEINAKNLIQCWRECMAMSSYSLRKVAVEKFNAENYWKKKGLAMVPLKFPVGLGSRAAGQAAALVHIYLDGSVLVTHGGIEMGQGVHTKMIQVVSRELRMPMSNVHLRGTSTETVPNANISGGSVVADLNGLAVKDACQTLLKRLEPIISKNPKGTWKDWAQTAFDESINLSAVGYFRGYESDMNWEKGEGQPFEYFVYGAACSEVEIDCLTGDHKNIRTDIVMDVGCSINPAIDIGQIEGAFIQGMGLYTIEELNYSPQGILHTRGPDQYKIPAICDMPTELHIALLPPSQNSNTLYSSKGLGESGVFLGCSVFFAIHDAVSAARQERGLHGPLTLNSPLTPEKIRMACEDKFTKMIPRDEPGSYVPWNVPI
Description: The aldehyde oxidases involvement in the metabolism of the test item was determined by comparison of the intrinsic clearance values in the presence and absence of aldehyde oxidases inhibitor hydralazine hydrochloride. The purpose of the study was to evaluate the in-vitro intrinsic clearance, the metabolic stability towards aldehyde oxidases (AO) activity and the metabolism of the test item in human liver cytosol. The intrinsic clearance was determined using the half-life approach, by measuring the substrate disappearance along 60 minutes incubation with human liver cytosol. Incubations were performed at the concentration of 1 μM. […] HPLC-MS/MS was used for the detection of the compound left over during the incubation. For intrinsic clearance determination samples were analyzed by high performance liquid chromatography (HPLC) on-line with mass spectrometry (MS) equipment. For the determination of aldehyde oxidases activity (i.e. positive control) of cytosol, phthalazine was incubated with human liver cytosol in presence and absence of the aldehyde oxidases inhibitor. On the day of the incubation, the compound was dissolved in DMSO at the concentration of 10 mM. Aliquots of this solution were added to the test system to a final concentration of […]. The percentage of DMSO in the final incubates was […]. Aliquots of the test item were added to human liver cytosol (1 mg/mL protein content) in Dulbecco's buffer, pH 7.4 at 37° C., to reach final concentration of 1 μM. Incubations were performed in a 48-well plate, under shaking. At 0, 5, 10, 20, 30 and 60 minutes incubation, 50 μL aliquots of the incubate were sampled, poured in 80 μL of ice-cold acetonitrile and 20 μL of 1 μM warfarin in acetonitrile (injection control) and centrifuged at 2500 rpm for 20 minutes. The supernatant was immediately analysed by LC-MS/MS.
The test item was incubated in parallel, in duplicate, at the concentration of 1 μM in Dulbecco's buffer, pH 7.4 for 60 min at 37° C. in the presence of 10 μM hydralazine hydrochloride (aldehyde oxidases inhibitor).
The chemical stability of the test item was checked in parallel by incubating the test item in single at the concentration of 1 μM in Dulbecco's buffer, pH 7.4 for 60 min at 37° C. (negative control).
The intrinsic clearance (CLint) was calculated using the half-life approach. Half-life and CLint were determined from the concentration (area counts) remaining at the different sampling points using the LC-MS/MS method. By plotting the natural logarithmic area of the compound remaining against the time, the slope was calculated by linear regression analysis and converted into the half-life (t½) and CLint expressed as μL/min/mg protein according to the following formulae: […]

Cdc7, sequence (O00311 whole entry): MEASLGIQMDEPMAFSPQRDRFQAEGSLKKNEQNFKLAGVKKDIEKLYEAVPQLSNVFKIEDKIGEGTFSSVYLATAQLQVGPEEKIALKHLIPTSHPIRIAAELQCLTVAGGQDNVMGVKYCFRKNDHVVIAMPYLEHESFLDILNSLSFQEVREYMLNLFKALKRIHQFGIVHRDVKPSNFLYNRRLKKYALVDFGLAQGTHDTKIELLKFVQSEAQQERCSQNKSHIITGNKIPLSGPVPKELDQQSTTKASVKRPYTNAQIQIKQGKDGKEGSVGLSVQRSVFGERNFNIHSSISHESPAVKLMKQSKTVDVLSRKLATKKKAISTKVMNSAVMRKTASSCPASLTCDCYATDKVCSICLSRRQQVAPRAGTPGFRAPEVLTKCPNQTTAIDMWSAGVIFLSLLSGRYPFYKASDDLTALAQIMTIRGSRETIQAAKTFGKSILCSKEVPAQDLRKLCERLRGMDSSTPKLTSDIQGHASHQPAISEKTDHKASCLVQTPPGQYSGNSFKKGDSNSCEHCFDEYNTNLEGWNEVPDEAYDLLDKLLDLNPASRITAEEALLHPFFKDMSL
Cdc7, sequence (Q9UBU7 whole entry partner): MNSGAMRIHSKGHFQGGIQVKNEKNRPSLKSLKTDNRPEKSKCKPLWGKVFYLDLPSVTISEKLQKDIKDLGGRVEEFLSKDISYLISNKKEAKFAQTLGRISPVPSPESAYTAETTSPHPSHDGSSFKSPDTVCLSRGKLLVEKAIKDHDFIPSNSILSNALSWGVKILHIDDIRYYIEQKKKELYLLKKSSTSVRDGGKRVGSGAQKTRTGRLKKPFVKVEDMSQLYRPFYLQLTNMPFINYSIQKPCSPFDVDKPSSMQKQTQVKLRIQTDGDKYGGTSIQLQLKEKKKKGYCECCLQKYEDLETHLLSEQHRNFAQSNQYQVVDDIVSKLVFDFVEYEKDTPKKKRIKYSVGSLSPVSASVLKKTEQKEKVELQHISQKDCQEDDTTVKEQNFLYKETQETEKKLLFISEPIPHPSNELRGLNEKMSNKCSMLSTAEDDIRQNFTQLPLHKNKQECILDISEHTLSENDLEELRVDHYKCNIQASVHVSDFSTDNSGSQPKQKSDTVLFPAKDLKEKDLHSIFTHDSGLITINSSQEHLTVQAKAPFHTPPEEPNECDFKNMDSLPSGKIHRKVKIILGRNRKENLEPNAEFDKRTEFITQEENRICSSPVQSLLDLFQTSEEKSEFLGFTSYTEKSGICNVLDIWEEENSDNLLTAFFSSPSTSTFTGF

Compound	IC50 (Cdc7) [nM]	HLC % remaining (1 h incub.) [1] [%]	IntCl (Intrinsic Clearance) [1] [μL/min/mg protein]	HLC T½ min [1] [h]
NC(=O)c1cc(-c2ccnc3[nH]ccc23)[nH]c1-c1cccc(Cl)c1F [comp 1, 2-(3-chloro-2-fluorophenyl)-5-(1H-pyrrolo[2,3-b]pyridin-4-yl)-1H-pyrrole-3-carboxamide]	4	100	2.9	3.98
NC(=O)c1cc(-c2ccnc3[nH]ccc23)[nH]c1-c1ccc(Cl)cc1F [comp 2, 2-(4-chloro-2-fluorophenyl)-5-(1H-pyrrolo[2,3-b]pyridin-4-yl)-1H-pyrrole-3-carboxamide]	3	98	2.9	3.98
NC(=O)c1cc(-c2ccnc3[nH]ccc23)[nH]c1-c1ccc(F)cc1Cl [comp 3, 2-(2-chloro-4-fluorophenyl)-5-(1H-pyrrolo[2,3-b]pyridin-4-yl)-1H-pyrrole-3-carboxamide]	1	97	2.9	3.98
NC(=O)c1cc(-c2ccnc3[nH]ccc23)[nH]c1-c1ccc(F)cc1F [comp 4, 2-(2,4-difluorophenyl)-5-(1H-pyrrolo[2,3-b]pyridin-4-yl)-1H-pyrrole-3-carboxamide]	4	100	2.9	3.98
NC(=O)c1cc(-c2ccnc3[nH]ccc23)[nH]c1-c1ccc(C(F)(F)F)cc1Cl [comp 5, 2-[2-chloro-4-(trifluoromethyl)phenyl]-5-(1H-pyrrolo[2,3-b]pyridin-4-yl)-1H-pyrrole-3-carboxamide]	1	100	2.9	3.98
NC(=O)c1cc(-c2ccnc3[nH]ccc23)[nH]c1-c1cccc(F)c1F [comp 6, 2-(2,3-difluorophenyl)-5-(1H-pyrrolo[2,3-b]pyridin-4-yl)-1H-pyrrole-3-carboxamide]	5	100	2.9	3.98
NC(=O)c1cc(-c2ccnc3[nH]ccc23)[nH]c1-c1cccc(Cl)c1Cl [comp 7, 2-(2,3-dichlorophenyl)-5-(1H-pyrrolo[2,3-b]pyridin-4-yl)-1H-pyrrole-3-carboxamide]	1	95	2.9	3.98
Cc1ccc(-c2[nH]c(-c3ccnc4[nH]ccc34)cc2C(N)=O)c(C(F)(F)F)c1 [comp 8, 2-[4-methyl-2-(trifluoromethyl)phenyl]-5-(1H-pyrrolo[2,3-b]pyridin-4-yl)-1H-pyrrole-3-carboxamide]	3	85	2.9	3.98
Cc1ccc(-c2[nH]c(-c3ccnc4[nH]ccc34)cc2C(N)=O)c(Cl)c1 [comp 9, 2-(2-chloro-4-methylphenyl)-5-(1H-pyrrolo[2,3-b]pyridin-4-yl)-1H-pyrrole-3-carboxamide]	1	100	2.9	3.98
Cc1ccc(-c2[nH]c(-c3ccnc4[nH]ccc34)cc2C(N)=O)c(F)c1F [comp 10, 2-(2,3-difluoro-4-methylphenyl)-5-(1H-pyrrolo[2,3-b]pyridin-4-yl)-1H-pyrrole-3-carboxamide]	3	95	2.9	3.98
Cc1cc(C(F)(F)F)ccc1-c1[nH]c(-c2ccnc3[nH]ccc23)cc1C(N)=O [comp 11, 2-[2-methyl-4-(trifluoromethyl)phenyl]-5-(1H-pyrrolo[2,3-b]pyridin-4-yl)-1H-pyrrole-3-carboxamide]	7	100	2.9	3.98
COc1cccc(-c2[nH]c(-c3ccnc4[nH]ccc34)cc2C(N)=O)c1F [comp 12, 2-(2-fluoro-3-methoxyphenyl)-5-(1H-pyrrolo[2,3-b]pyridin-4-yl)-1H-pyrrole-3-carboxamide]	4	97	2.9	3.98
NC(=O)c1cc(-c2ccnc3[nH]ccc23)[nH]c1-c1cccc(F)c1Cl [comp 13, 2-(2-chloro-3-fluorophenyl)-5-(1H-pyrrolo[2,3-b]pyridin-4-yl)-1H-pyrrole-3-carboxamide]	1	100	2.9	3.98
Cc1cccc(-c2[nH]c(-c3ccnc4[nH]ccc34)cc2C(N)=O)c1F [comp 14, 2-(2-fluoro-3-methylphenyl)-5-(1H-pyrrolo[2,3-b]pyridin-4-yl)-1H-pyrrole-3-carboxamide]	10	100	2.9	3.98
Cc1c(-c2[nH]c(-c3ccnc4[nH]ccc34)cc2C(N)=O)cccc1C(F)(F)F [comp 15, 2-[2-methyl-3-(trifluoromethyl)phenyl]-5-(1H-pyrrolo[2,3-b]pyridin-4-yl)-1H-pyrrole-3-carboxamide]	6	100	2.9	3.98
NC(=O)c1cc(-c2cc(N)ncn2)[nH]c1-c1ccc(Cl)cc1Cl [compound 42, 5-(6-aminopyrimidin-4-yl)-2-(2,4-dichlorophenyl)-1H-pyrrole-3-carboxamide]	90	100	2.9	3.98
NC(=O)c1cc(-c2cn[nH]c2)[nH]c1-c1ccc(Cl)cc1Cl [compound 43, 2-(2,4-dichlorophenyl)-5-(1H-pyrazol-4-yl)-1H-pyrrole-3-carboxamide]	13	100	2.9	3.98
Cc1n[nH]cc1-c1cc(C(N)=O)c(-c2ccc(Cl)cc2Cl)[nH]1 [compound 44, 2-(2,4-dichlorophenyl)-5-(3-methyl-1H-pyrazol-4-yl)-1H-pyrrole-3-carboxamide]	48	100	2.9	3.98
NC(=O)c1cc(-c2ccnc3[nH]ccc23)n(CCC(F)(F)F)c1-c1ccc(Cl)cc1Cl [compound 55, 2-(2,4-dichlorophenyl)-5-(1H-pyrrolo[2,3-b]pyridin-4-yl)-1-(3,3,3-trifluoropropyl)-1H-pyrrole-3-carboxamide]	996	–	–	–
Cn1c(-c2ccnc3[nH]ccc23)cc(C(N)=O)c1-c1ccc(Cl)cc1Cl [compound 56, 2-(2,4-dichlorophenyl)-1-methyl-5-(1H-pyrrolo[2,3-b]pyridin-4-yl)-1H-pyrrole-3-carboxamide]	14	–	–	–
CCn1c(-c2ccnc3[nH]ccc23)cc(C(N)=O)c1-c1ccc(Cl)cc1Cl [compound 57, 2-(2,4-dichlorophenyl)-1-ethyl-5-(1H-pyrrolo[2,3-b]pyridin-4-yl)-1H-pyrrole-3-carboxamide]	17	–	–	–
